Six compounds from patent US10004701B2, “Methods and compositions for treating infection” (UNIVERSITY OF ROCHESTER, priority 2012, dated 2018) can be followed below.

Common to all, as to assay: AK assay 384-well format, Prestwick library screening
One assay relates to K. pneumoniae. The class given is cell-based, Klebsiella pneumoniae. Conditions: 50 μM final drug concentration; for fold induction at 50 µM: Klebsiella pneumoniae, 3 h.
In a further assay the test system is E. coli. Format: cell-based, Escherichia coli. The settings on record: 50 μM final drug concentration; for fold induction at 50 µM: Escherichia coli, 3 h.
Assay [1] deals with A. baumannii strain 98-37-09. Format: cell-based, Acinetobacter baumannii. Conditions: 50 μM final drug concentration; for fold induction at 50 µM: Acinetobacter baumannii, 983709, 3 h.
A further assay has as its system P. aeruginosa. Format: cell-based, Pseudomonas aeruginosa. The settings on record: 50 μM final drug concentration; for fold induction at 50 µM: Pseudomonas aeruginosa, 3 h.
The test system of another assay is E. cloacae. The class given is cell-based, Enterobacter cloacae. Conditions: 50 μM final drug concentration; for fold induction at 50 µM: Enterobacter cloacae, 3 h.
Another assay deals with E. faecium. Format: cell-based, Enterococcus faecium. Conditions: 50 μM final drug concentration; for fold induction at 50 µM: Enterococcus faecium, 3 h.
For assay [2], the system named is S. aureus strain USA300-0114. Format: cell-based, Staphylococcus aureus. The settings on record: 50 μM final drug concentration; for fold induction at 50 µM: Staphylococcus aureus, USA300, 3 h.

Counter-ions that a name gives are not always drawn. Like-named read-outs stand apart in the source and are kept apart here.

With `NC[C@@H]1O[C@H](O[C@H]2[C@@H](O)[C@H](O[C@@H]3[C@@H](O)[C@H](N)C[C@H](N)[C@H]3O[C@H]3O[C@H](CN)[C@@H](O)[C@H](O)[C@H]3N)O[C@@H]2CO)[C@H](N)[C@@H](O)[C@@H]1O.O=S(=O)(O)O` [Neomycin sulfate], the “AK-based Prestwick Library Screening Results: K. pneumoniae (increase in extracellular AK activity)” value in the assay on K. pneumoniae (planktonic K. pneumoniae, 384-well, cutoff for positive-scoring molecules 3-fold increase) amounted to 1.0. Further, the “AK-based Prestwick Library Screening Results: E. coli (increase in extracellular AK activity)” value in the assay on E. coli (planktonic E. coli, 384-well, cutoff for positive-scoring molecules 3-fold increase) was found to be 1.2. Further, the “AK-based Prestwick Library Screening Results: A. baumannii (increase in extracellular AK activity)” value in assay [1] (planktonic A. baumannii, 384-well, cutoff for positive-scoring molecules 3-fold increase) turned out to be 1.4. Also, the “AK-based Prestwick Library Screening Results: P. aeruginosa (increase in extracellular AK activity)” value in the assay with P. aeruginosa (planktonic P. aeruginosa, 384-well, cutoff for positive-scoring molecules 3-fold increase) turned out to be 0.9. The “AK-based Prestwick Library Screening Results: E. cloacae (increase in extracellular AK activity)” value in the assay with E. cloacae (planktonic E. cloacae, 384-well, cutoff for positive-scoring molecules 3-fold increase) was determined as 1.3. Besides, in the assay with E. faecium (planktonic E. faecium, 384-well, cutoff for positive-scoring molecules 3-fold increase), the “AK-based Prestwick Library Screening Results: E. faecium (increase in extracellular AK activity)” value is 1.0. Besides, the “AK-based Prestwick Library Screening Results: S. aureus (increase in extracellular AK activity)” value in assay [2] (planktonic S. aureus, 384-well, cutoff for positive-scoring molecules 3-fold increase) came out at 1.1.

Turning to `CN(C)C(=O)Oc1cccc([N+](C)(C)C)c1` [Neostigmine bromide], the fold induction at 50 µM in the assay with K. pneumoniae (planktonic, […], read-out: AK-based Prestwick Library Screening Results, K. pneumoniae (fold increase in extracellular AK activity)) came out at 1; in the assay on E. coli (planktonic, […], read-out: AK-based Prestwick Library Screening Results, E. coli (fold increase in extracellular AK activity)) it was 1.3; in assay [1] (planktonic, […], read-out: AK-based Prestwick Library Screening Results, A. baumannii (fold increase in extracellular AK activity)) it was 1.3; in the assay with P. aeruginosa (planktonic, […], read-out: AK-based Prestwick Library Screening Results, P. aeruginosa (fold increase in extracellular AK activity)) it was 1.1; in the assay on E. cloacae (planktonic, […], read-out: AK-based Prestwick Library Screening Results, E. cloacae (fold increase in extracellular AK activity)), 1.2; in the assay on E. faecium (planktonic, […], read-out: AK-based Prestwick Library Screening Results, E. faecium (fold increase in extracellular AK activity)), 1. Also, the fold induction at 50 µM in assay [2] (planktonic, […], read-out: AK-based Prestwick Library Screening Results, S. aureus (fold increase in extracellular AK activity)) worked out at 1.2.

Consider `O=C(O)c1cccnc1` [Niacin], for which the fold induction at 50 µM with K. pneumoniae (planktonic, cutoff for positive-scoring molecules 3-fold increase, read-out: AK-based Prestwick Library Screening Results, K. pneumoniae (fold increase in extracellular AK activity)) came out at 0.5; in the assay on E. coli (planktonic, cutoff for positive-scoring molecules 3-fold increase, read-out: AK-based Prestwick Library Screening Results, E. coli (fold increase in extracellular AK activity)), 0.7; in assay [1] (planktonic, cutoff for positive-scoring molecules 3-fold increase, read-out: AK-based Prestwick Library Screening Results, A. baumannii (fold increase in extracellular AK activity)) it was 0.6; in the assay on P. aeruginosa (planktonic, cutoff for positive-scoring molecules 3-fold increase, read-out: AK-based Prestwick Library Screening Results, P. aeruginosa (fold increase in extracellular AK activity)), 0.6; in the assay with E. cloacae (planktonic, cutoff for positive-scoring molecules 3-fold increase, read-out: AK-based Prestwick Library Screening Results, E. cloacae (fold increase in extracellular AK activity)), 0.7; with E. faecium (planktonic, cutoff for positive-scoring molecules 3-fold increase, read-out: AK-based Prestwick Library Screening Results, E. faecium (fold increase in extracellular AK activity)), 0.9. In addition, in assay [2] (planktonic, cutoff for positive-scoring molecules 3-fold increase, read-out: AK-based Prestwick Library Screening Results, S. aureus (fold increase in extracellular AK activity)), the fold induction at 50 µM is 0.6.

For the compound `O=C(CCNNC(=O)c1ccncc1)NCc1ccccc1` [Nialamide], the fold induction at 50 µM was 0.9 in the assay with K. pneumoniae (planktonic K. pneumoniae, positive cutoff 3-fold increase, read-out: AK-based Prestwick library screening result, K. pneumoniae (fold increase in extracellular AK activity)); 1.2 in the assay with E. coli (planktonic E. coli, positive cutoff 3-fold increase, read-out: AK-based Prestwick library screening result, E. coli (fold increase in extracellular AK activity)); 1 in assay [1] (planktonic A. baumannii, positive cutoff 3-fold increase, read-out: AK-based Prestwick library screening result, A. baumannii (fold increase in extracellular AK activity)); 1.2 in the assay on P. aeruginosa (planktonic P. aeruginosa, positive cutoff 3-fold increase, read-out: AK-based Prestwick library screening result, P. aeruginosa (fold increase in extracellular AK activity)); 1.4 in the assay on E. cloacae (planktonic E. cloacae, positive cutoff 3-fold increase, read-out: AK-based Prestwick library screening result, E. cloacae (fold increase in extracellular AK activity)); 1.1 in the assay with E. faecium (planktonic E. faecium, positive cutoff 3-fold increase, read-out: AK-based Prestwick library screening result, E. faecium (fold increase in extracellular AK activity)). In assay [2] (planktonic S. aureus, positive cutoff 3-fold increase, read-out: AK-based Prestwick library screening result, S. aureus (fold increase in extracellular AK activity)), the fold induction at 50 µM is 1.2.

For `COC(=O)C1=C(C)NC(C)=C(C(=O)OCCN(C)Cc2ccccc2)C1c1cccc([N+](=O)[O-])c1` (stereo not drawn) [Nicardipine hydrochloride], the fold induction at 50 µM in the assay with K. pneumoniae (planktonic, cutoff for positive 3-fold increase, read-out: AK-based Prestwick Library Screening Results, K. pneumoniae (fold increase in extracellular AK activity)) turned out to be 1; with E. coli (planktonic, cutoff for positive 3-fold increase, read-out: AK-based Prestwick Library Screening Results, E. coli (fold increase in extracellular AK activity)), 1.2; in assay [1] (planktonic, cutoff for positive 3-fold increase, read-out: AK-based Prestwick Library Screening Results, A. baumannii (fold increase in extracellular AK activity)) it was 1.3; in the assay on P. aeruginosa (planktonic, cutoff for positive 3-fold increase, read-out: AK-based Prestwick Library Screening Results, P. aeruginosa (fold increase in extracellular AK activity)) it was 1.1; in the assay with E. cloacae (planktonic, cutoff for positive 3-fold increase, read-out: AK-based Prestwick Library Screening Results, E. cloacae (fold increase in extracellular AK activity)), 1.4; with E. faecium (planktonic, cutoff for positive 3-fold increase, read-out: AK-based Prestwick Library Screening Results, E. faecium (fold increase in extracellular AK activity)), 1.1. For the same compound, the fold induction at 50 µM in assay [2] (planktonic, cutoff for positive 3-fold increase, read-out: AK-based Prestwick Library Screening Results, S. aureus (fold increase in extracellular AK activity)) was found to be 0.6.

Turning to `CO[C@]12C[C@@H](COC(=O)c3cncc(Br)c3)CN(C)[C@@H]1Cc1cn(C)c3cccc2c13` [Nicergoline], the fold induction at 50 µM stood at 1 in the assay on K. pneumoniae (planktonic K. pneumoniae, 384-well, cutoff for positive-scoring molecules 3-fold increase, read-out: AK-based Prestwick Library Screening Results: K. pneumoniae (increase in extracellular AK activity)); 1.3 with E. coli (planktonic E. coli, 384-well, cutoff for positive-scoring molecules 3-fold increase, read-out: AK-based Prestwick Library Screening Results: E. coli (increase in extracellular AK activity)); 1.4 in assay [1] (planktonic A. baumannii, 384-well, cutoff for positive-scoring molecules 3-fold increase, read-out: AK-based Prestwick Library Screening Results: A. baumannii (increase in extracellular AK activity)); 1.2 in the assay with P. aeruginosa (planktonic P. aeruginosa, 384-well, cutoff for positive-scoring molecules 3-fold increase, read-out: AK-based Prestwick Library Screening Results: P. aeruginosa (increase in extracellular AK activity)); 1.2 in the assay on E. cloacae (planktonic E. cloacae, 384-well, cutoff for positive-scoring molecules 3-fold increase, read-out: AK-based Prestwick Library Screening Results: E. cloacae (increase in extracellular AK activity)); 1 with E. faecium (planktonic E. faecium, 384-well, cutoff for positive-scoring molecules 3-fold increase, read-out: AK-based Prestwick Library Screening Results: E. faecium (increase in extracellular AK activity)). The fold induction at 50 µM in assay [2] (planktonic S. aureus, 384-well, cutoff for positive-scoring molecules 3-fold increase, read-out: AK-based Prestwick Library Screening Results: S. aureus (increase in extracellular AK activity)) was 1.4.
